Holding throughout (type): functional, PBL
Test [1] in a line: Antimitotic activity in human peripheral blood lymphocytes assessed as mitotic index at 25 uM.
Test [2] can be described thus: Antimitotic activity in human peripheral blood lymphocytes assessed as mitotic index at 1 uM.
The nature of test [3]: Antimitotic activity in human peripheral blood lymphocytes assessed as mitotic index at 0.5 uM.

`COC(C)(C)CCC/C(C)=C/COc1cc(O)c2c(c1)Cc1cc(C)cc(O)c1C2=O`: the Activity in test [1] was 49.9%; in test [2], 48.7%; in test [3], 47.4%.

For `CN[C@H]1CCc2cc(OC)c(OC)c(OC)c2-c2ccc(OC)c(=O)cc21` [DEMECOLCINE], the Activity in test [2] stood at 70.1%.

In the case of `C[C@]12CC[C@@H]3c4ccc(OC(=O)N(CCCl)CCCl)cc4CC[C@H]3[C@@H]1CC[C@@H]2O` [ESTRAMUSTINE], in test [2], the Activity is 78.7%.

These data come from ChEMBL document CHEMBL1155651, “New prenylated anthraquinones and xanthones from Vismia guineensis” (2000).
